Data from patent publication US20060128695A1, “Cyclic nucleotide phosphodiesterase inhibitors, preparation and uses” (NEURO3D, priority 2002, published 2006).

Biological target: T1, PDE2 (Bos taurus, UniProt P14099)
T1 construct: PDE2 was prepared from bovine endothelial cells by the same methods; endogenous in cells; host or cells: bovine endothelial cells
T1 sequence (P14099 1-921): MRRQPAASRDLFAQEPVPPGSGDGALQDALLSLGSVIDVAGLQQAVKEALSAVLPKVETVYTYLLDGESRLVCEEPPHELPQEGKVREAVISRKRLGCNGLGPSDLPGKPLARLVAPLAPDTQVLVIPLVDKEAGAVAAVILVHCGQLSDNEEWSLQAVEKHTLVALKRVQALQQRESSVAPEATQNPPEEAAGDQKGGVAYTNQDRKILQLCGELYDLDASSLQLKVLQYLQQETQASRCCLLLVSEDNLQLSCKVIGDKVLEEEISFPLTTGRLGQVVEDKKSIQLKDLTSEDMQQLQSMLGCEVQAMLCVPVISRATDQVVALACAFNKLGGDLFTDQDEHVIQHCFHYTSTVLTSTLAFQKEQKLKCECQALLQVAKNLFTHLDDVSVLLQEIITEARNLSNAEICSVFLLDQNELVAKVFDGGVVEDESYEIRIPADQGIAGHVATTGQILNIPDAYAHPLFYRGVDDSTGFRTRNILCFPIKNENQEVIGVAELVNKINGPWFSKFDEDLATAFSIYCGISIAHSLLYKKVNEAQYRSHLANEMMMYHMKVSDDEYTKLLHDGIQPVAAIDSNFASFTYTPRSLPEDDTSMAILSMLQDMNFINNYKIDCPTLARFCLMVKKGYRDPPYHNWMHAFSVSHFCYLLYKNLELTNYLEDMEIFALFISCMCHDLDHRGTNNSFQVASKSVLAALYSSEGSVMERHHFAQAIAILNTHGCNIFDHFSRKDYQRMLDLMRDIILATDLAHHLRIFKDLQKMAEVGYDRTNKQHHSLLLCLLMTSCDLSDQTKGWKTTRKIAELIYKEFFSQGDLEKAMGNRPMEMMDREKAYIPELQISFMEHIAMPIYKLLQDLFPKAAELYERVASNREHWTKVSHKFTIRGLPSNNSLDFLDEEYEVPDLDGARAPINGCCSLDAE
Assay: Inhibition of PDE2, radioenzymatic phosphodiesterase assay
Type: biochemical, bovine
Details: not given

Going from `COc1cc2c(cc1OC)C(c1cccc(C(N)=O)c1)=NCC(=O)N2` [Compound 5e, 3-(7,8-dimethoxy-2-oxo-2,3-dihydro-1H-1,4-benzodiazepin-5-yl)benzamide] to `CCN1C(=O)CN=C(c2cccc(C(N)=O)c2)c2cc(OC)c(OC)cc21` [Compound 5g, 3-(1-ethyl-7,8-dimethoxy-2-oxo-2,3-dihydro-1H-1,4-benzodiazepin-5-yl)benzamide], the IC50 rises from 6.6 µM to 24.6 µM (3.7-fold). The first is the more potent here.

Going from `CCCN1C(=O)CN=C(c2cccc(C(N)=O)c2)c2cc(OC)c(OC)cc21` [Compound 5f, 3-(7,8-dimethoxy-1-propyl-2-oxo-2,3-dihydro-1H-1,4-benzodiazepin-5-yl)benzamide] to `COc1cc2c(cc1OC)N(C)C(=O)C(C)N=C2c1cccc(C(N)=O)c1` (stereo not drawn) [Compound 5j, 3-(7,8-dimethoxy-1,3-dimethyl-2-oxo-2,3-dihydro-1H-1,4-benzodiazepin-5-yl) benzamide], the IC50 falls from 12.6 µM to 4.5 µM (2.8-fold). The second is the more potent here.

First: COc1ccc2c(c1)N(C)C(=O)CN=C2c1cccc(C(N)=O)c1 [Compound 5l, 3-(8-methoxy-1-methyl-2-oxo-2,3-dihydro-1H-1,4-benzodiazepin-5-yl)benzamide]
Second: COc1cc2c(cc1OC)N(C)C(=O)CN=C2c1cccc(CN)c1 [Compound 8a, 5-[3-(aminomethyl)phenyl]-7,8-dimethoxy-1-methyl-1,3-dihydro-2H-1,4-benzodiazepin-2-one]
The IC50 of the first is 1.6-fold higher: 14 µM for the first, 9 µM for the second.

Going from `COc1cc2c(cc1OC)N(C)C(=O)CN=C2c1cccc(C#CCNC(=O)OC(C)(C)C)c1` [Compound 6a, Tert-butyl-3-[3-(7,8-dimethoxy-1-methyl-2-oxo-2,3-dihydro-1H-1,4-benzodiazepin-5-yl)phenyl]propynylcarbamate] to `CCCCC#Cc1cccc(C2=NCC(=O)N(C)c3cc(OC)c(OC)cc32)c1` [Compound 6b, 7,8-dimethoxy-5-(3′-hex-1-ynylphenyl)-1-N-methyl-1,3-dihydro-2H-1,4-benzodiazepin-2-one], the IC50 falls from 8.4 µM to 1.06 µM (7.9-fold).

`COc1cc2c(cc1OC)N(C)C(=O)CN=C2c1cccc(C#CCN2CCCCC2)c1` [Compound 6c, 7,8-dimethoxy-1-methyl-5-[3-(3-piperidin-1-ylprop-1-ynyl)phenyl]-1,3-dihydro-2H-1,4-benzodiazepin-2-one] and `COc1cc2c(cc1OC)N(C)C(=O)CN=C2c1cccc([N+](=O)[O-])c1` [Compound 17c, 7,8-dimethoxy-1-methyl-5-(3-nitrophenyl)-1,3-dihydro-1,4-benzodiazepin-2-one] are within 1.5-fold of each other in IC50: 4.3 µM for the first, 6.1 µM for the second.

First: CCCCCCc1cccc(C2=NCC(=O)N(C)c3cc(OC)c(OC)cc32)c1 [Compound 6e, 7,8-dimethoxy-5-(3′-hexylphenyl)-1-N-methyl-1,3-dihydro-2H-1,4-benzodiazepin-2-one]
Second: COc1cc2c(cc1OC)N(C)C(=O)CN=C2c1cccc(CCCCCC(N)=O)c1 [Compound 6i, 6-[3-(7,8-dimethoxy-1-methyl-2-oxo-2,3-dihydro-1H-1,4-benzodiazepin-5-yl)phenyl]hexanamide]
The IC50 of the first is 16-fold lower: 0.36 µM for the first, 5.6 µM for the second.

`COc1cc2c(cc1OC)N(C)C(=O)C(Cc1ccc(Cl)c(Cl)c1)N=C2c1cccc(C#N)c1` (stereo not drawn) [Compound 7b, 3-[3-(3,4-dichlorobenzyl)-7,8-dimethoxy-1-methyl-2-oxo-2,3-dihydro-1H-1,4-benzodiazepin-5-yl]benzonitrile] showed an IC50 of 5.5 µM.

Same assay, conditions: 10 μM test compound; PDE2 from bovine endothelial cells

In the case of `CNC1=Nc2cc(OC)c(OC)cc2C(c2cccc(C#N)c2)=NC1` [Compound 12a, 3-(7,8-dimethoxy-2-methylamino-1,3-dihydro-3H-1,4-benzodiazepin-5-yl)benzonitrile], the “PDE2 percentage inhibition at 10 μM” value is reported as 16%.

Same assay, conditions: 10 μM test compound; PDE2 from bovine endothelial cells; read-out: PDE2 percentage inhibition at 10 μM

Going from `COc1cc2c(c(Br)c1OC)N(C)C(=O)CN=C2c1cccc(C(N)=O)c1` [Compound 5d, 3-(9-bromo-7,8-dimethoxy-1-methyl-2-oxo-2,3-dihydro-1H-1,4-benzodiazepin-5-yl)benzamide] to `COc1cc2c(cc1OC)N(C)C(=O)CN=C2c1cccc(C(N)=S)c1` [Compound 9a, 3-(7,8-dimethoxy-1-methyl-2-oxo-2,3-dihydro-1H-1,4-benzodiazepin-5-yl)thiobenzamide], the inhibition at 10 µM rises from 19.2% to 85%.

Going from `COc1cc2c(cc1OC)N(C)C(=O)CN=C2c1cccc(CNC(C)=O)c1` [Compound 8b, N-[3-(7,8-dimethoxy-1-methyl-2-oxo-2,3-dihydro-1H-1,4-benzodiazepin-5-yl)benzyl]acetamide] to `COc1cc2c(cc1OC)-n1ccnc1CN=C2c1cccc(C(N)=O)c1` [Compound 11b, 3-(8,9-dimethoxy-4H-imidazo[1,2-a] [1,4]benzodiazepin-6-yl)benzamide], the inhibition at 10 µM rises from 27.2% to 69.3%.

Same assay, conditions: read-out: PDE2 percentage inhibition at 10 μM

Going from `CCCN1C(=O)CN=C(c2cccc(C(F)(F)F)c2)c2cc(OC)c(OC)cc21` [Compound 4r, 5-[3-(trifluoromethyl)phenyl]-7,8-dimethoxy-1-n-propyl-1,3-dihydro-1,4-benzodiazepin-2-one] to `COc1cc2c(cc1OC)N(Cc1ccccc1)C(=O)CN=C2c1cccc(C(F)(F)F)c1` [Compound 4s, 1-benzyl-5-[3-(trifluoromethyl)phenyl]-7,8-dimethoxy-1,3-dihydro-1,4-benzodiazepin-2-one], the inhibition at 10 µM falls from 34% to 14%.

Going from `COc1cc2c(c(-c3ccccc3)c1OC)C(c1cccc(C(N)=O)c1)=NCC(=O)N2C` [Compound 5c, 3-(7,8-dimethoxy-1-methyl-2-oxo-6-phenyl-2,3-dihydro-1H-1,4-benzodiazepin-5-yl)benzamide] to `COc1cc2c(c(-c3ccccc3)c1OC)N(C)C(=O)CN=C2c1cccc(C(N)=O)c1` [Compound 5m, 3-(7,8-dimethoxy-1-methyl-2-oxo-9-phenyl-2,3-dihydro-1H-1,4-benzodiazepin-5-yl)benzamide], the inhibition at 10 µM falls from 53.3% to 5.9%.

Compared with `COc1cc2c(cc1OC)N(Cc1ccccc1)C(=O)CN=C2c1cccc(C(N)=O)c1` [Compound 5h, 3-(1-benzyl-7,8-dimethoxy-2-oxo-2,3-dihydro-1H-1,4-benzodiazepin-5-yl)benzamide], `COc1cc2c(cc1OC)N(C)C(=O)CN=C2c1cccc(-c2cccc(C(N)=O)c2)c1` [Compound 6o, 3′-(7,8-dimethoxy-1-methyl-2-oxo-2,3-dihydro-1H-1,4-benzodiazepin-5-yl)-1,1′-biphenyl-3-carboxamide] is higher in inhibition at 10 µM: 0% for the first, 79.3% for the second.

Going from `CCOC(=O)CN1C(=O)CN=C(c2cccc(C(N)=O)c2)c2cc(OC)c(OC)cc21` [Compound 5i, Ethyl{5-[3-(aminocarbonyl)phenyl]-7,8-dimethoxy-2-oxo-2,3-dihydro-1H-1,4-benzodiazepin-1-yl}acetate] to `CCN1C(=O)CN=C(c2cccc(C#CCOCc3ccccc3)c2)c2cc(OC)c(OC)cc21` [Compound 6k, 5-{3-[3-(benzyloxy)prop-1-ynyl]phenyl}-1-ethyl-7,8-dimethoxy-1,3-dihydro-2H-1,4-benzodiazepin-2-one], the inhibition at 10 µM rises from 0% to 69.7%.

Compared with `COc1cc2c(cc1OC)N(C)C(=O)C(Cc1ccc(Cl)c(Cl)c1)N=C2c1cccc(C(N)=O)c1` (stereo not drawn) [Compound 5k, 3-[3-(3,4-dichlorobenzyl)-7,8-dimethoxy-1-methyl-2-oxo-2,3-dihydro-1H-1,4-benzodiazepin-5-yl]benzamide], `COc1cc2c(cc1OC)N(C)C(=O)C(C)N=C2c1cccc(C#N)c1` (stereo not drawn) [Compound 7d, 3-(7,8-dimethoxy-1,3-dimethyl-2-oxo-2,3-dihydro-1H-1,4-benzodiazepin-5-yl)benzonitrile] is lower in inhibition at 10 µM: 67.8% for the first, 33.8% for the second.

First: COc1cc2c(cc1OC)N(C)C(=O)CN=C2c1cccc(-c2cccc(C#N)c2)c1 [Compound 6l, 3′-(7,8-dimethoxy-1-methyl-2-oxo-2,3-dihydro-1H-1,4-benzodiazepin-5-yl)-1,1′-biphenyl-3-carbonitrile]
Second: COc1cc2c(cc1OC)N(C)C(=O)CN=C2c1cccc(-c2nc(-c3ccccc3)cs2)c1 [Compound 9b, 7,8-dimethoxy-1-methyl-5-[3-(4-phenyl-1,3-thiazol-2-yl)phenyl]-1,3-dihydro-2H-1,4-benzodiazepin-2-one]
The inhibition at 10 µM of the first is lower: 77.5% for the first, 91.4% for the second.

Compared with `COc1cc2c(cc1OC)N(C)C(=O)C(C)N=C2c1cccc(C(F)(F)F)c1` (stereo not drawn) [Compound 7c, 7,8-dimethoxy-1,3-dimethyl-5-(3-trifluoromethylphenyl)-1,3-dihydro-2H-1,4-benzodiazepin-2-one], `COc1cc2c(cc1OC)-n1ccnc1CN=C2c1cccc(C#N)c1` [Compound 11a, 3-(8,9-dimethoxy-4H-imidazo[1,2-a][1,4]benzodiazepin-6-yl)benzonitrile] is higher in inhibition at 10 µM: 41% for the first, 43% for the second.

`COc1cc2c(cc1OC)C(c1cccc(C#N)c1)=NCC(=S)N2` [Compound 10d, 5-(3-cyanophenyl)-7,8-dimethoxy-1,3-dihydro-2H-1,4-benzodiazepin-2-thione] gave an inhibition at 10 µM of 5.5%.
